We go through 1 compound from patent US11596615B2, “Compositions and methods for treatment of insulin resistance” (Temple University—Of The Commonwealth System Of Higher …, priority 2016, dated 2023).

The test system of assay [1] is mice fed high fat diet (HFD). Description: Fasting glucose and glucose tolerance test in HFD mice (Example 11). The settings on record: two weeks. Type of assay: in vivo, C57BL/6J mice. On the procedure:
Thirty-two C57BL/6J mice 8-weeks old were selected and randomly separated. The mice (n=8) were fed ad libitum for two weeks with either CHOW diet or high fat diet (HFD, 60% of fat content). Each group was divided in half 8 animals received regular water and the other 8 received (S)-2-amino-6-((3-aminopropyl)amino)hexanoic acid dihydrochloride dissolved in water so as to administer about 10 mg/kg of the drug body weight per mouse, per day. As an additional experimental control (n=8), a group of mice receiving HFD also received pioglitazone (10 mg/kg). Poglitazone is a well-known anti-diabetic agent. It has the ability to increase glucose uptake into the cells. […] At the end of the two weeks, animals were fasted for 5 hours, weighed, and their tails were clipped to measure fasting blood glucose levels. Immediately after, glucose was administered intraperitoneally (1 mg/g of body weight). Glucose levels were measured at 20, 40, 80 and 140 minutes after glucose administration in a glucose time test (GTT). Animals were euthanized under anesthesia (isoflurane). Blood, liver, fat and muscle tissues were collected and flash frozen for the studies. […]

A further assay deals with 3T3-L1 adipocytes. Description: 13C6-glucose uptake in 3T3-L1 adipocytes exposed to 4HNE/H2O2 (Example 7). Format: cell-based, mouse. The settings on record: 0.1, 1, 10 and 100 μM compound for 2 h, then 4HNE/H2O2 100 μM each 1 h; FIG. 5; dihydrochloride. On the procedure: 3T3-L1 Mouse Embryonic Fibroblasts, ATCC® CL-173™ were differentiated to adipocytes using chemically-induced differentiation according to the ATCC guidelines. Differentiated 3T3-L1 Adipocyte 4e^6 cell were incubated overnight in glucose free media (RPMI ref. #11879 Gibco) containing 1% dialyzed fetal bovine serum (ref. #26400 Gibco) at 37° C. Cells were washed with and incubated for 1 h with glucose free media before compound exposure. Cells were incubated with and without increasing concentration (0.1, 1, 10 and 100 μM) of (S)-2-amino-6-((3-aminopropyl)amino)hexanoic acid dihydrochloride (title compound) for 2 h at 37° C., followed by 3 wash steps in glucose free phosphate buffer. […]
Cells were washed with PBS, followed by addition of glucose free DMEM medium containing 20 mM of ^13C6 glucose, 10 mM, 2-fluorodeoxyglucose (2-FDG) and insulin 10 pM (Sigma I5500) incubated for 1 hour at 37° C. 2-FDG is an inhibitor of glucose metabolism, thus preventing glucose breakdown and allowing its accumulation to further be measure and quantified. […]
The detection of the ^13C6 glucose, was carried out using a Waters Xevo™ triple quadrupole tandem mass spectrometer (Waters Corp., Manchester, UK). […] Chromatographic and mass spectrum data were collected and analyzed with Waters MassLynx v4.1 software. […]

Assay [2] is described as follows: Adduct formation with 4-HNE by mass spectroscopy. Conditions: equimolar 10 μM APL and 4-HNE, 1 hr incubation at 37° C.; FIG. 6A, 6B; dihydrochloride. As to the method:
The experimental design was to incubate equimolar amounts (10 μM) of APL (dihydrochloride) with 4-HNE and measure adduct formation by mass spectroscopy before and after 1 hr incubation at 37° C.

Entries after “also recorded” stand apart in the source; their conditions may differ. Where a name gives a salt, the structure may show the parent alone.

`NCCCNCCCC[C@H](N)C(=O)O` [APL, (S)-2-amino-6-((3-aminopropyl)amino)hexanoic acid dihydrochloride]: in assay [1] (10 mg/kg, glucose 1 mg/g i.p., FIG. 8C), the glucose tolerance test result is on record as “drastically improved”. Moreover, the fasting glucose levels entry in assay [1] (about 10 mg/kg per day, 5 hours fasted, FIG. 8B) is on record as “reduced fasting glucose levels”. Further, the “glucose uptake impairment induced by 4-HNE and H2O2” value with 3T3-L1 adipocytes was “able to prevent the glucose uptake impairment induced by 4-HNE and H2O2, in a dose-dependent fashion; also recorded: prevented glucose uptake-impairing effect of 4-HNE and H2O2, in a dose-dependent fashion”. The “adduct formation with 4-HNE” value in assay [2] is given as “forms an adduct with 4-HNE after 1 hr of incubation; also recorded: forms an adduct with 4-NHE”.
